Test results: publication PMC11220827 (Frontiers in Pharmacology, 2024)
pIC50: −log10 of the molar value. Like-named read-outs stand apart in the source and are kept apart here.

Tests used:
Adenosine A1 (h) = target: T1, Adenosine A1 (h) (Homo sapiens, UniProt P30542); experiment: Pharmacology profiling: Adenosine A1 (h) (antagonist RL); assay type: binding
T1 sequence (P30542 1-326): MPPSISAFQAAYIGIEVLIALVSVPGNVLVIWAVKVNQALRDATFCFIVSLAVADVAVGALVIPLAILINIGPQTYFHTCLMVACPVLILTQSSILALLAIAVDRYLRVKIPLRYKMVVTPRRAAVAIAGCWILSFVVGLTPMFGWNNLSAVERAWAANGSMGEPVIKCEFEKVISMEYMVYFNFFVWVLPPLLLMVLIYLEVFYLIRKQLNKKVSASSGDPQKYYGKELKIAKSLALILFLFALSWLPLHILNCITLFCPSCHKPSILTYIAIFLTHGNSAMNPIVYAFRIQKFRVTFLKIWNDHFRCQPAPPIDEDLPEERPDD
Description: targets. The list of targets included the original panel of 44 targets (including receptors, ion channels,
transporters and enzymes) recommended by 4 major pharmaceutical companies as significant
reasoned to link to pathological effects. Results showing an inhibition or stimulation higher than 50%
are considered to represent significant effects (i.e. a “hit”).
and 50% are indicative of weak to moderate effects and results showing an inhibition (or stimulation)
around the control level. For several targets, additional concentration effect assays were conducted to
determine the potency (IC50). The concentrations tested (in duplicate) ranged between 30 nM and 100

HepG2 cells = experiment: cells; assay type: cell-based; details: for AC50: Homo sapiens, HepG2, 24 h
Adenosine A2A (h) = Adenosine A2A (h) (Homo sapiens, UniProt P29274); experiment: Pharmacology profiling: Adenosine A2A (h) (agonist RL); assay type: binding
Description: (§1) Cosmetics Europe’s Systemic Toxicity Taskforce (SysTox-TF) has extended the list of targets in an in vitro screen originally described by [Bowes et al. (2012)] to assess the effects of cosmetic chemicals on target molecules. The approach was based on the knowledge that various targets of pharmacological interest have been linked to human adverse drug reactions, and that screening of these has helped the pharma industry in identifying drug candidates with acceptable human safety profiles ([Bowes et al., 2012]; [Scott et al., 2022]). The methods used by the pharma industry were adapted for use in cosmetic chemical NGRA. A final list of 83 target assays were considered suitable for cosmetic chemical safety testing (see Supplementary Materials S1.7). The targets were receptors, ion channels, transporters and enzymes identified by the pharma industry as linked to human adverse drug reactions, supplemented by additional targets that have been reasoned to be linked to systemic toxicities of chemicals in animals. Chemicals that are flagged for a target are tested in follow-up dose-response assays to establish potency of the interaction. […]. [Valentin et al., 2018]; [Dodson et al., 2021]). […].
(§2) assay’s reference compound was set to 100%. For antagonist assays, the basal signal (exposure to fixed concentration of agonist only) was set to 100%. Activity of the samples was scaled accordingly, […]
(§3) Using these graphs, lowest […]
(§4) compound activity for antagonist assays.
(§5) S1.7. Pharmacology profiling assays […]
(§6) reasoned to link to pathological effects. […]
(§7) around the control level. […]
(§8) determine the potency (IC50).
(§9) Supplementary Table S4 Pharmacology profiling assay panel. […]

Deiodinase = test system: Deiodinase; set-up: method as in ToxCast; details: ref ToxCast, cited from earlier work; as to Thyroid pathway: Deiodinase (Not AOP), Call: key: Pos = positive result; Neg = negative result; Inc = uncertain/inconclusive result
Monooxygenase = test system: Monooxygenase; set-up: method as in ToxCast; details: ref ToxCast, cited from earlier work; as to Thyroid pathway: Monooxygenase (Not AOP), Call: key: Pos = positive result; Neg = negative result; Inc = uncertain/inconclusive result
[1] = assay type: in vitro ADME; details: 3 nmol/cm^2 in the body lotion formulation
Description: Additional information was required to determine whether an adjustment factor was needed to account for a difference in the absorption of daidzein after topical application and whether the absorption was impacted by the use of the intended (body lotion base) formulation. […]. […] […]. The results of this study are described in detail by [Géniès et al. (2024)] and are summarized here.

Aromatase = test system: Aromatase; set-up: method as in ToxCast; details: ref ToxCast; cited from earlier work; also: key: Pos = positive result; Neg = negative result; Inc = uncertain/inconclusive result
TSHR = test system: TSHR; set-up: method as in ToxCast; details: ref ToxCast; cited from earlier work; also: key: Pos = positive result; Neg = negative result; Inc = uncertain/inconclusive result
[2] = ref SCCS 2022; cited from earlier work
HepaRG cells = experiment: Transcriptomics (TempO-Seq, BMD analysis) in HepaRG cells; assay type: cell-based
Description: These differed with respect to the number of genes passing all filters in each pathway (3 versus 5 genes). […] Therefore, we captured pathways which fulfilled both criteria.
HepG2 (human hepatoblastoma) , MCF-7 (human breast adenocarcinoma) cells supplied by
Public Health England European Collection of Cell Cultures (ECACC, Salisbury, UK). Differentiated
HepaRG cells (HPR116, Lot HPR116239 -TA08) were from Biopredic International (Rennes, France).
Test chemicals were prepared in DMSO as serial dilutions, resulting in concentrations in media of
biological replicates were treated with the appropriate dose of co mpound for 24 h prior to cell lysis.
Biospyder human whole genome panel version 1 (https://biospyder.com).
Gene normalization and analysis
expression values for each probe were normalized by applying DESEQ2 normalization. A pseudo-
read-count of 1.0 was added to each normalized expression value, and then the values were log2
transformed . Analyses performed included Gene and Pathway, Dose Response and Network
monotonic increasing/decreasing trend were those which confirmed to the criteria : William’s trend
Those genes were then used in categorical (pathway) analysis for the Gene Ontology (GO) terms and
REACTOME pathways. Significant dose responsive pathways were determined according to : Fisher’s

rats = details: cited from earlier work
PDE4D2 (h) = PDE4D2 (h) (Homo sapiens, UniProt Q08499); experiment: Pharmacology profiling: PDE4D2 (h) (phosphodiesterase 4D); assay type: biochemical
Description: as §1, §2, §3, §4, §5, §6, §7, §8, §9

[3] = HepaRG, 24 h, pathway differs per chemical

PDE4D2 (h), sequence (Q08499 303-809): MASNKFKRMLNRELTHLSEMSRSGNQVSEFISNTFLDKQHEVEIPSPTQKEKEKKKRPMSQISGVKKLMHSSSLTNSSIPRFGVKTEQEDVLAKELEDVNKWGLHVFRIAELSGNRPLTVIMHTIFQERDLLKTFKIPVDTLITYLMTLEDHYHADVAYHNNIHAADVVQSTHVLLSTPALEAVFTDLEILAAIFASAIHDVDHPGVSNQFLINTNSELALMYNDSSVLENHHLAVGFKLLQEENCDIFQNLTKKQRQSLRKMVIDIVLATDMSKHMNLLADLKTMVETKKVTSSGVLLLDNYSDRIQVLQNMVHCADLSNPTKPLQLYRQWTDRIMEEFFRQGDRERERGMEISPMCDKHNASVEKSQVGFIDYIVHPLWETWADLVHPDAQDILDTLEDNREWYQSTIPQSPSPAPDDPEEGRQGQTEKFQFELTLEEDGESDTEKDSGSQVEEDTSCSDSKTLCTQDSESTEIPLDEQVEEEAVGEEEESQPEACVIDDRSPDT
Adenosine A2A (h), sequence (P29274 whole entry): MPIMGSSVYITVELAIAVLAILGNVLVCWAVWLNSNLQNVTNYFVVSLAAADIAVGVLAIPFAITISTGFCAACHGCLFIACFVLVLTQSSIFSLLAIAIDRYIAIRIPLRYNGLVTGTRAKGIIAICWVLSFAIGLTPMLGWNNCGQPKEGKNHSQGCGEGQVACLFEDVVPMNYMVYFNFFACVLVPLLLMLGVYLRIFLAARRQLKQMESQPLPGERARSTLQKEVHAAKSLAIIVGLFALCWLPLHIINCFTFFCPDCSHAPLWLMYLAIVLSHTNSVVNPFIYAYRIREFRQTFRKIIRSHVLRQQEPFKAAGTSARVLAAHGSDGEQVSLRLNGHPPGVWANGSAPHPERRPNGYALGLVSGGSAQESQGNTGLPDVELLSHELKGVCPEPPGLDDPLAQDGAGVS
Description for H295R cells: DMSO (1% compound stock in incubation mixture).
was measured on a Berthold luminometer.
Serial dilutions of the compounds were incubated in Tris -buffer (pH 8.0) overnight at 4°C in the
incubation mixture). After incubation, TTR-bound and free T4 were separated on a Bio-Gel P-6DG
column. The eluate was added to assay medium after which TRβ CALUX cells were exposed for 24 h
For this TRβ CALUX exposure, serum-free assay medium was used.
wells plates in assay medium, and exposed for 48h to a serial dilution of the compound in triplicate
exposure, the assay medium was analysed on the ERα and AR CALUX bioassays as described
Changes in hormone levels compared to a vehicle control exposure
Preincubation with rat liver S9 fraction
To assess the effect of metabolism on the activity of the test
compound for these assays, preincubations with rat liver S9 were performed. Compounds (10 μl
DMSO stock solution) were incubated for 0 h (control) or 3 h (test condition) in a total volume of 1
ml TRIS buffer in the presence of 1% (v/v) PB/BNF induced rat liver S9 mix (including NADPH and
an NADPH-regenerating system). After incubation, the reaction was stopped by the addition of ice
cold acetone, and samples were frozen to stimulate protein precipitation. After thawing, the
precipitated protein fraction was subsequently removed by centrifugation. The supernatant, cont aining
the metabolites and any remaining non-metabolised parent compound, was concentrated under a
gentle nitrogen flow. After evaporating to dryness, the sample was taken up in 50 μl DMSO followed
by the addition of 50 μl TRIS buffer. This extract was used for the exposure of the hTPO inhibition,
Relative light units (RLUs) of the CALUX assays were analysed as follows. For agonist assays,
background values (exposure to DMSO only) were subtracted, and the maximum activity of the
resulting in expression of the data as “percentage of maximum reference response”. Graphs were
generated using the statistical software package GraphPad Prism V5.03. Using these graphs, lowest
effect concentrations (LOECs) and PC50 concentrations were determined; LOEC is defined as the
maximum reference compound activity for agonist assays, and 20% of the maximum reference
compound activity for antagonist assays. The PC50 is defined as the concentration where the activity
of the sample equals 50% of the maximum activity of the assay’s reference compound.
the test compound was divided by the amount of estrogens and androgens produced by the solvent
control-exposed cells. A sample was considered ‘active’ if it decreased the hormone production 0.8-
Description for U2-OS cells: using the U2-OS based CALUX cytotox bioassay. The cytotoxicity of each test chemical was assessed using the U2-OS based cytotoxicity CALUX bioassay. Concentrations causing >20% reduction of luminescence were considered cytotoxic.
cytotoxicity (relative induction in the cytotoxicity CALUX bioassay > 80%) were used for final
evaluation of analysis results.
induction in the cytotox CALUX bioassay > 80%) were used for final evaluation of analysis results.
All analysis results were expressed in molar (M) final in well.
For the analyses in the presence of rat liver S9, 0.03% (v/v) of PB/BNF induced rat liver
S9 mix (including NADPH and an NADPH-regenerating system) was added to the cells directly after
addition of the compounds, which remained there for the duration of the exposure period (24 h) (van

Compound: O=c1c(-c2ccc(O)cc2)coc2cc(O)cc(O)c12 [Genistein, 5,7-DIHYDROXY-3-(4-HYDROXYPHENYL)-4-BENZOPYRONE]
- pIC50 (Adenosine A1 (h)): 5.04
- inhibition at 10 µM (Adenosine A1 (h); read-out: Adenosine A1 (h) (antagonist RL): % inhibition @10 µM): 53.5%
- AhR Translocation: Effect (HepG2 cells): increase
- Apoptosis & necrosis: caspase 3/7: Effect (HepG2 cells): increase
- Apoptosis & necrosis: cell cycle arrest: Effect (HepG2 cells): decrease
- Cellular ATP: Effect (HepG2 cells): decrease
- DNA damage: Phospho-p53: Effect (HepG2 cells): increase
- DNA damage: p-H2AX: Effect (HepG2 cells): increase
- ER stress panel 1: ER integrity: Effect (HepG2 cells): increase
- ER stress panel 1: XBP1: Effect (HepG2 cells): increase
- ER stress panel 2: CHOP: Effect (HepG2 cells): increase
- Inflammation & pH: HIF1α: Effect (HepG2 cells): increase
- Inflammation & pH: ICAM-1: Effect (HepG2 cells): increase
- Inflammation & pH: intracellular pH: Effect (HepG2 cells): increase
- Metal stress: MTF1: Effect (HepG2 cells): decrease
- Mitochondrial mass: Effect (HepG2 cells): increase
- Mitochondrial membrane potential: Effect (HepG2 cells): decrease
- Nuclear size: Effect (HepG2 cells): increase
- Osmotic & heat shock: NFAT: Effect (HepG2 cells): increase
- Oxidative stress: HMOX1: Effect (HepG2 cells): increase
- Oxidative stress: NRF2: Effect (HepG2 cells): increase
- Seahorse assay: Extracellular acidification rate (ECAR): Effect (HepG2 cells): decrease
- Seahorse assay: oxygen consumption rate (OCR): Effect (HepG2 cells): decrease
- Seahorse assay: reserve capacity: Effect (HepG2 cells): decrease
- AC50 (HepG2 cells; read-out: AhR Translocation: AC50): > 100 µM
- AC50 (HepG2 cells; read-out: Apoptosis & necrosis: caspase 3/7: AC50): > 100 µM
- AC50 (HepG2 cells; read-out: Apoptosis & necrosis: cell cycle arrest: AC50): > 100 µM
- AC50 (HepG2 cells; read-out: Cellular ATP: AC50): > 100 µM
- AC50 (HepG2 cells; read-out: DNA damage: Phospho-p53: AC50): > 100 µM
- AC50 (HepG2 cells; read-out: DNA damage: p-H2AX: AC50): > 100 µM
- AC50 (HepG2 cells; read-out: ER stress panel 1: ER integrity: AC50): > 100 µM
- AC50 (HepG2 cells; read-out: ER stress panel 1: XBP1: AC50): 40.4 µM
- AC50 (HepG2 cells; read-out: ER stress panel 2: CHOP: AC50): > 100 µM
- AC50 (HepG2 cells; read-out: Inflammation & pH: HIF1α: AC50): > 100 µM
- AC50 (HepG2 cells; read-out: Inflammation & pH: ICAM-1: AC50): > 100 µM
- AC50 (HepG2 cells; read-out: Inflammation & pH: intracellular pH: AC50): > 100 µM
- AC50 (HepG2 cells; read-out: Metal stress: MTF1: AC50): > 100 µM
- AC50 (HepG2 cells; read-out: Mitochondrial mass: AC50): > 100 µM
- AC50 (HepG2 cells; read-out: Mitochondrial membrane potential: AC50): 69.6 µM
- AC50 (HepG2 cells; read-out: Nuclear size: AC50): > 100 µM
- AC50 (HepG2 cells; read-out: Osmotic & heat shock: NFAT: AC50): > 100 µM
- AC50 (HepG2 cells; read-out: Oxidative stress: HMOX1: AC50): > 100 µM
- AC50 (HepG2 cells; read-out: Oxidative stress: NRF2: AC50): > 100 µM
- AC50 (HepG2 cells; read-out: Seahorse assay: Extracellular acidification rate (ECAR): AC50): > 100 µM
- AC50 (HepG2 cells; read-out: Seahorse assay: oxygen consumption rate (OCR): AC50): > 100 µM
- AC50 (HepG2 cells; read-out: Seahorse assay: reserve capacity: AC50): > 100 µM
- AhR Translocation: MEC (HepG2 cells; human, 24 h): 51.2 µM
- Apoptosis & necrosis: caspase 3/7: MEC (HepG2 cells; human, 24 h): 49.8 µM
- Apoptosis & necrosis: cell cycle arrest: MEC (HepG2 cells; human, 24 h): 35.8 µM
- Cell stress LOEC, ↓ in mitochondrial membrane potential (HepG2 cells; human, 24 h): 11.6 µM
- Cellular ATP: MEC (HepG2 cells; human, 24 h): 31.5 µM
- DNA damage: Phospho-p53: MEC (HepG2 cells; human, 24 h): 22.8 µM
- DNA damage: p-H2AX: MEC (HepG2 cells; human, 24 h): 13.4 µM
- ER stress panel 1: ER integrity: MEC (HepG2 cells; human, 24 h): 23.3 µM
- ER stress panel 1: XBP1: MEC (HepG2 cells; human, 24 h): 40.9 µM
- ER stress panel 2: CHOP: MEC (HepG2 cells; human, 24 h): 69.0 µM
- Inflammation & pH: HIF1α: MEC (HepG2 cells; human, 24 h): 44.8 µM
- Inflammation & pH: ICAM-1: MEC (HepG2 cells; human, 24 h): 34.4 µM
- Inflammation & pH: intracellular pH: MEC (HepG2 cells; human, 24 h): 50.6 µM
- Metal stress: MTF1: MEC (HepG2 cells; human, 24 h): 25.5 µM
- Mitochondrial mass: MEC (HepG2 cells; human, 24 h): 15.0 µM
- Mitochondrial membrane potential: MEC (HepG2 cells; human, 24 h): 11.6 µM
- Nuclear size: MEC (HepG2 cells; human, 24 h): 25.2 µM
- Osmotic & heat shock: NFAT: MEC (HepG2 cells; human, 24 h): 49.4 µM
- Oxidative stress: HMOX1: MEC (HepG2 cells; human, 24 h): 29.9 µM
- Oxidative stress: NRF2: MEC (HepG2 cells; human, 24 h): 29.9 µM
- Seahorse assay: Extracellular acidification rate (ECAR): MEC (HepG2 cells; human, 24 h): 27.7 µM
- Seahorse assay: oxygen consumption rate (OCR): MEC (HepG2 cells; human, 24 h): 41.5 µM
- Seahorse assay: reserve capacity: MEC (HepG2 cells; human, 24 h): 34.8 µM
- pIC50 (Adenosine A2A (h)): 5.00
- inhibition at 10 µM (Adenosine A2A (h); read-out: Adenosine A2A (h) (agonist RL): % inhibition @10 µM): 52.2%
- Thyroid pathway: Deiodinase (Not AOP), Call (Deiodinase): Pos
- AC50 (Deiodinase; read-out: Thyroid pathway: Deiodinase (Not AOP), AC50): 2.43 µM
- Cytotoxicity LOEC, +S9 (U2-OS cells; +S9 (rat liver)): >−5 Log M
- Cytotoxicity LOEC, −S9 (U2-OS cells; −S9): >−5 Log M
- Thyroid pathway: Monooxygenase (Not AOP), Call (Monooxygenase): Pos
- AC50 (Monooxygenase; read-out: Thyroid pathway: Monooxygenase (Not AOP), AC50): 9.44 µM
- Amount of parent chemical entering the systemic circulation [1]: 7.2 % of the applied dose
- Steroidogenesis: Aromatase, Call (Aromatase): Neg
- Thyroid pathway: Regulation of transcription factor activity (TSHR), Call (TSHR): Neg
- In vitro Comet assay result [2]: positive, and four were negative
- BMD/NOEC, gene pathway deregulation (HepaRG cells; HepaRG cells): 40.0 nM
- Lowest median BMD, 3 genes passing all filters (HepaRG cells; [3]): 0.040 µM
- Lowest median BMD, >5 genes passing all filters (HepaRG cells; [3]): 0.051 µM
- BMD relating to estrogen effects (HepaRG cells; HepaRG, 24 h, pathway named in the cell): 0.11- Estrogen-dependent gene expression ↑ µM
- NOAEL, 13 weeks (rats; male and female rats, feed 0, 5, 50 or 500 mg/kg/day, ref McClain et al. 2006): 50 mg/kg/day
- NOAEL, 52 weeks (rats; male and female rats, feed, based on mild hepatic effects, ref McClain et al. 2006): 50 mg/kg/day
- NOAEL from repeat dose studies (rats; ref McClain et al., 2006): above 50 mg/kg/day
- pIC50 (PDE4D2 (h)): 6.13
- inhibition at 10 µM (PDE4D2 (h); read-out: PDE4D2 (h) (phosphodiesterase 4D): % inhibition @10 µM): 87%
- Steroidogenesis (AR) Testosterone LOEC, +S9 (H295R cells; +S9 (preincubation with rat liver S9)): −5.7 Log M
- LOEC, androgen synthesis (impaired) (H295R cells; H295R): 3.2 × 10^−6 ± 0 M
- Steroidogenesis (AR) Testosterone LOEC, −S9 (H295R cells; −S9): −5.5 Log M
